# Data as given in patent publication US20180043059A1, “3D Ti-6Al-4V Structures with Hydrogel Matrix” (priority 2016, published 2018).
# “Also recorded” adds a separate entry of the source. Read-outs that look alike come from different tables or passages of the source.
# What was measured:
# MC3T3-E1 cells [1] = test: Combinatorial dose of DFM and D(+) glucose, MTS viability, MC3T3-E1; assay type: cell-based, mouse; settings: 5 mM glucose, 24 hours
# Method: (§1) Cells that undergo hypoxia mimetic stress mediated by Hif-1α have been reported to increase their metabolic demands. To test how metabolic demands change in cells exposed to DFM, both HUVECs and MC3T3-E1 cells were exposed to 3.2 μM DFM, 5 mM D(+) glucose and a combination of 3.2 μM DFM+5 mM D(+) glucose for 24 hours. A negative control consisted of both cell types without treatment. The viability of cells was determined by MTS viability assay. The purpose of this approach is to determine whether D(+) glucose can be used as an additive in the hydrogel matrix to improve wound healing and help drive vascularization and osteogenesis process.
# HUVECs [2] = test: Combinatorial dose of DFM and D(+) glucose, MTS viability, HUVECs; assay type: cell-based, Human; settings: 5 mM glucose, 24 hours
# Method: as §1
# MC3T3-E1 cells [3] = test: Fluorescent microscopy of pre-osteoblasts grown in Ti-6Al-4V foam under DFM; assay type: cell-based, mouse; settings: 3.2 μM DFM (low concentration), 21 days
# Method: Pre-osteoblasts seeded on foam structures were cultured for 7 days to test for similar cell behavior as reported by Nune et al. Cells were seeded at 200,000 cells/well in a 12 well plate, 1 mL total media volume and then stained with Hoechst 33342 cell nuclei dye. A second experiment was performed once the appropriate concentration of DFM was selected. Pre-osteoblasts are seeded at the previously described concentration in the same conditions but exposed to 3.2 μM DFM. Proliferation is observed after 21 days exposure. A second stain is performed with Vybrant® CFDA SE Cell Tracer Kit to visually determine the viability of cells without disturbing the layer of cells grown in the foams. Because the scaffold is solid metal, light cannot be transmitted through it if fully dense. However, due to the foam nature of the scaffold, light may be transmitted though the medium and a visible image can be obtained if the metal section is thin enough. Despite the fact that a thin section makes fluorescent microscopy feasible, since the scaffold is 3D, focus is lost in the z axis and there is a lack of clarity for morphological details. Improvements on microscopy can be done by using Confocal Microscopy instead of Fluorescent Microscopy in order to view in more detail cellular morphology and microcapillary formation. […]
# MC3T3-E1 cells [4] = test system: MC3T3-E1 cells
# HUVECs [5] = test: Induction of angiogenesis (capillary formation) in Matrigel and in foams with gel; assay type: cell-based, Human
# Method: It has been previously reported that MC3T3-E1 pre-osteoblast cells undergo differentiation and proliferation when grown in porous foams in glutamine containing media. It has been extensively reported that endothelial cells are able to form capillaries in gels when exposed to DFM [28]. In this experiment, a live angiogenesis monitoring experiment is performed in order to analyze capillarity maturation and cell survival. This analysis is achieved by staining HUVECs with PHK26 Red Fluorescent Dye (Sigma) and MC3T3-E1 cells with PKH67 Green fluorescent dye (Sigma). Both dyes stain cell membranes in an unspecific way, while maintaining cellular viability for an extended period of time. MC3T3-E1 cells are grown in foams as described above, but under hypoxic conditions (3.2 μM DFM). The Ti-6Al-4V foams are pre-incubated with pre-osteoblasts for a total of 7 days, with a negative hypoxia control being cells without any DFM. The cells grown on the foams and gel are monitored throughout the duration of this experiment. The foams are removed from the wells and placed in a 12 well plate and Matrigel® (Corning Life Sciences) will be added until the foam is completely covered. In order to observe microcapillarity formation upon exposure of HUVECs to DFM, the manufacturer specifications are followed. Briefly, Matrigel® is thawed according to specifications (4° C. overnight) and added to a 24 well cell culture plate and allowed to gelate also according to specifications (30-60 minutes at 37° C.). […] The cell suspension is incubated at 37° C., 5% CO2 for 16 to 18 hours on the Matrigel coated plate for 16-18 hours. The formation of microcapillaries is measured by confocal microscopy.
# Hif-1α = test: Western blot analysis of Hif-1α in HUVECs exposed to DFM; assay type: cell-based, Human
# Method: To further quantify the expression of specific proteins, a western blot analysis is performed for Hif-1α and VEGF165. The western blot analysis was made using the cell lysate previously described. A Sodium Dodecyl Sulfate-Polyacrylamide Gel Electrophoresis (SDS-PAGE) was made (7.5% acrylamide for Hif-1α (93 kDa) and 12% acrylamide for VEGF165 (38 kDa)). The separated proteins are then transferred to a PVDF membrane. The Hif-1α antibody at a 1:1,000 dilution in 1% BSA in 1×TBST buffer was incubated for one hour at room temperature, followed by three 10 min washes with TBST. A secondary anti-rabbit IgG HRP conjugated antibody was incubated for 30 minutes at room temperature, followed also by subsequent washes with TB ST.
# [6] = test system: MC3T3-E1 pre-osteoblast cells
# HUVECs [7] = test: Total protein content (Bradford); assay type: cell-based, Human; settings: endothelial cells exposed to DFM
# Method: Cells are grown for 6 h, 24 h and 48 h in the presence of DFM at the previously specified 1:5 dilutions. After the desired time periods they are washed with cold 1×PBS and lysed with Radioimmunoprecipitation (RIPA) protein lysis buffer (0.2% Triton X-100+protease inhibitor cocktail) for 30 min in an ice bath. The total protein content in the cells is estimated using the Bradford spectrophotometric protein assay. Briefly, 10 μL of the cell lysate will be mixed with 100 μL of Bradford Reagent (Sigma) and re-suspended to homogenize the solution on a 96 well plate. The absorbance will be measured at 595 nm. A standard plot of absorbance as a function of bovine serum albumin (BSA) concentration will be obtained to determine the concentration value of the experimental and control samples.
# MC3T3-E1 cells [8] = test: Alizarin Red S (ARS) mineralization assay; assay type: cell-based, mouse
# Source text: Because it is expected that pre-osteoblasts differentiate into osteoblasts under a hypoxic condition, cells should mineralize calcium in the ECM. The study of mineralization of ECM can be viewed as a measure or potential for bone formation. In this regard, Alizarin Red Assay (ARS) (Sigma-Aldrich) is used qualitatively and quantitatively to indicate the presence of calcium in the matrix. […] The negative control for this experiment is cells grown in 3D printed foams in complete media with no added glutamate. After incubation, the samples are washed carefully with PBS without disturbing the cell layer and fixed with 4% paraformaldehyde for 30 minutes. The 3D foam structures were then stained with alizarin red (pH˜4.1) in the dark and at room temperature for 30 minutes. Samples are qualitatively studied via light microscope after rinsing with PBS. The calcium nodules should appear red. To conduct quantitative analysis, 10% cetyl pyridinium chloride will be added to remove the alizarin red stain. The absorbance of the solution is measured at 570 nm OD with a spectrophotometric microplate reader.
# HUVECs [9] = settings: cited from earlier work
compound,measurement,setting,value
O=C[C@H](O)[C@@H](O)[C@H](O)[C@H](O)CO [D(+) glucose],viability response to additional D(+) glucose,MC3T3-E1 cells [1],not
same,viability response to additional D(+) glucose,"HUVECs [2]; compared with MC3T3-E1, listed as D(+) Glucose",Augments Viability Faster
same,viability response to additional D(+) glucose,"HUVECs [2]; compared with MC3T3-E1, listed as glucose",more positive response
"CC(=O)N(O)CCCCCNC(=O)CCC(=O)N(O)CCCCCNC(=O)CCC(=O)N(O)CCCCCN.CS(=O)(=O)O [DFM, Deferoxamine Mesylate]",proliferation of pre-osteoblasts in the foam (Hoechst 33342 staining),MC3T3-E1 cells [3],proliferating
same,cellular proliferation (cell count),"MC3T3-E1 cells [4]; 24 hour exposure, remaining dilutions, compared to unexposed control","constant cell population numbers, with a slight decrease in numbers"
same,cellular proliferation (cell count),MC3T3-E1 cells [4]; lowest concentrations (3.2 μM and 640 nM),observable increase in proliferation
same,maintenance of capillary structure,HUVECs [5]; HUVECs exposed to 2 mM DFM in Matrigel,maintain their structure for an extended period of time
same,capillary formation in Matrigel,"HUVECs [5]; HUVECs exposed to 2 mM DFM, 18 hour period, not apparent in control without DFM",readily formed capillaries; also recorded: HUVECs readily undergo migration to form
same,vascular structure formation in foams with gel,"HUVECs [5]; Ti-6Al-4V foam + Matrigel with pre-incubated MC3T3-E1, HUVECs treated with 2 mM DFM, FIG. 7",HUVECs readily undergo migration to form
same,total intracellular Hif-1α bands,Hif-1α; 48 hours exposure,still producing definitive bands
same,Hif-1α levels with increasing DFM concentration (summary),Hif-1α; HUVECs,Hif-1α levels increased with increasing DFM
same,Hif-1α expression,Hif-1α; high doses (2 mM) vs normoxia,notably increase
same,cellular metabolism (MTS) across drug concentrations,[6]; 24 hours exposure,almost no variation in cellular metabolism
same,MTS metabolism,[6]; exposure equal or longer than 72 hours,greatly increases
same,viability at lower concentrations (summary),[6]; lower concentrations,E1 cells exposed to DFM. Viability increases
same,cellular viability (summary),[6]; mouse,Cellular viability does not decrease in MC3T3-
same,levels of total protein synthesized,HUVECs [7],No obvious changes
same,"cellular production of hydroxyapatite, cells grown in foams","MC3T3-E1 cells [8]; Ti-6Al-4V foams, 3.2 μM DFM",enhanced; also recorded: DFM enhances the cellular production of
same,synthesis levels of hydroxyapatite versus control,"MC3T3-E1 cells [8]; foams, 3.2 μM DFM, 14 days",increase on par in both settings
same,amount of cellular hydroxyapatite versus control,"MC3T3-E1 cells [8]; foams, 3.2 μM DFM, 21 days, FIG. 6",dramatically increases
same,amount of hydroxyapatite versus control,"MC3T3-E1 cells [8]; foams, 3.2 μM DFM, initially (7 days)",comparatively similar amounts of hydroxyapatite to control cells
same,"production of mineralized calcium / hydroxyapatite, cells grown in plates",MC3T3-E1 cells [8]; plates,increases the production of mineralized calcium; also recorded: DFM enhances the cellular production of
same,expression of mineralized calcium (ARS),"MC3T3-E1 cells [8]; plates, 640 nM DFM, 21 days, FIG. 5",highest expression of mineralized calcium
same,expression of hydroxyapatite compared to control cells,"MC3T3-E1 cells [8]; plates, 640 nM DFM, every instance (7, 14, 21 days)",always in greater amount
same,DFM concentration that can stimulate a survival response,HUVECs [9]; previous reports,~10 µM
same,DFM concentration at which HUVECs undergo angiogenesis,HUVECs [9]; previously reported,approximately 10 μM
CoCl2,MTS metabolism,[6],greatly increases
same,cellular metabolism (MTS) across drug concentrations,[6],almost no variation in cellular metabolism
same,viability at lower concentrations (summary),[6],E1 cells exposed to DFM. Viability increases
